Literature values as cited in publication PMC2791716 (Biotechnology and bioengineering, 2009).
Read-outs that look alike come from different tables or passages of the source.

Assays:
[1] = no reference given
[2] = tested on: cell adhesion to laminin-1; settings: ref Nakahara et al. 1996

| Molecule | minimum effective therapeutic concentration ([1]; systemic delivery) [mg/kg] | minimum effective therapeutic concentration ([1]; systemic vascular concentration, converted from 50mg/kg) | inhibition of cell adhesion to laminin-1 [2] [%] |
| --- | --- | --- | --- |
| COc1cccc2c1C(=O)c1c(O)c3c(c(O)c1C2=O)C[C@@](O)(C(=O)CO)C[C@@H]3O[C@H]1C[C@H](N)[C@H](O)[C@H](C)O1 [doxorubicin] | 50 | approximately 90 μM | – |
| TWYKIAFQRNRK | – | – | 90 |
